Source: the NIST ThermoML archive (doi:10.1021/je060107n)

Test: mn = molality of the nth substance listed, in mol/kg
Settings: 101 kPa, Liquid; for mass density: Pycnometric method; for viscosity: Capillary tube (Ostwald / Ubbelohde) method; for speed of sound: Linear variable-path acoustic interferometer

O=[N+]([O-])[O-].O=[N+]([O-])[O-].[Mg+2] [magnesium nitrate] + O
Settings | mass density [kg/m3] | speed of sound [m/s] | viscosity [mPa·s]
302.1 K, m1 = 3.096 | 1269.1 | – | –
302.1 K, m1 = 3.501 | 1297.2 | – | –
302.25 K, m1 = 2.131 | 1194.8 | – | –
302.25 K, m1 = 3.17 | 1278.7 | – | –
302.3 K, m1 = 4.728 | 1376.3 | – | –
302.4 K, m1 = 4.285 | 1347.6 | – | –
302.55 K, m1 = 0.3405 | 1030.8 | – | –
302.55 K, m1 = 2.493 | 1222.7 | – | –
302.6 K, m1 = 1.827 | 1169.5 | – | –
302.6 K, m1 = 4.883 | 1382.9 | – | –
302.95 K, m1 = 4.039 | 1330.8 | – | –
302.95 K, m1 = 5.134 | 1399.9 | – | –
303.05 K, m1 = 0.0145 | 996.95 | – | –
303.1 K, m1 = 1.694 | 1156.4 | – | –
303.1 K, m1 = 2.584 | 1230.7 | – | –
303.1 K, m1 = 2.793 | 1246.1 | – | –
303.15 K, m1 = 0.0145 | – | 1509.5 | 0.8115
303.15 K, m1 = 0.0528 | – | 1511.9 | 0.825
303.15 K, m1 = 0.2491 | – | 1526.5 | 0.8716
303.15 K, m1 = 0.3405 | – | 1529.9 | –
303.15 K, m1 = 0.5931 | – | – | 0.9679
303.15 K, m1 = 0.6173 | – | 1550.7 | –
303.15 K, m1 = 0.896 | – | 1571.2 | –
303.15 K, m1 = 0.9898 | – | 1578.7 | 1.112
303.15 K, m1 = 1.262 | – | 1596.4 | 1.228
303.15 K, m1 = 1.525 | – | 1617 | –
303.15 K, m1 = 1.827 | – | 1641 | 1.493
303.15 K, m1 = 2.131 | – | 1663.8 | 1.654
303.15 K, m1 = 2.493 | – | 1686.8 | –
303.15 K, m1 = 2.584 | – | – | 1.969
303.15 K, m1 = 2.793 | – | 1708.1 | –
303.15 K, m1 = 3.096 | – | – | 2.38
303.15 K, m1 = 3.118 | – | 1729.1 | –
303.15 K, m1 = 3.17 | – | 1736.9 | –
303.15 K, m1 = 3.329 | – | – | 2.611
303.15 K, m1 = 3.501 | – | 1753.9 | –
303.15 K, m1 = 3.704 | – | – | 2.998
303.15 K, m1 = 3.757 | – | 1772.5 | –
303.15 K, m1 = 4.039 | – | – | 3.462
303.15 K, m1 = 4.051 | – | 1783.6 | –
303.15 K, m1 = 4.285 | – | 1797.4 | –
303.15 K, m1 = 4.403 | – | 1804.5 | –
303.15 K, m1 = 4.728 | – | – | 4.73
303.15 K, m1 = 4.883 | – | 1830.6 | –
303.15 K, m1 = 4.907 | – | – | 5.225
303.15 K, m1 = 4.97 | 1388.7 | – | –
303.15 K, m1 = 5.134 | – | 1842.9 | –
303.15 K, m1 = 5.282 | – | – | 6.141
303.25 K, m1 = 0.0528 | 1001.1 | – | –
303.3 K, m1 = 3.704 | 1309.8 | – | –
303.5 K, m1 = 1.525 | 1141.2 | – | –
303.5 K, m1 = 4.403 | 1353.9 | – | –
303.55 K, m1 = 1.262 | 1118.2 | – | –
303.85 K, m1 = 0.5931 | 1055.1 | – | –
303.9 K, m1 = 0.896 | 1084.7 | – | –
304.15 K, m1 = 0.6173 | 1057.7 | – | –
304.25 K, m1 = 3.096 | 1267.7 | – | –
304.35 K, m1 = 3.501 | 1295.8 | – | –
304.35 K, m1 = 3.757 | 1312.3 | – | –
304.55 K, m1 = 2.131 | 1193.6 | – | –
304.55 K, m1 = 3.118 | 1268.5 | – | –
304.55 K, m1 = 4.285 | 1346.2 | – | –
304.55 K, m1 = 4.728 | 1374.9 | – | –
304.8 K, m1 = 4.883 | 1381.4 | – | –
305 K, m1 = 0.2491 | 1021.1 | – | –
305 K, m1 = 1.827 | 1168.3 | – | –
305.05 K, m1 = 2.493 | 1221.3 | – | –
305.2 K, m1 = 4.051 | 1329.4 | – | –
305.25 K, m1 = 4.039 | 1329.3 | – | –
305.3 K, m1 = 1.694 | 1155.3 | – | –
305.35 K, m1 = 2.584 | 1229.4 | – | –
305.5 K, m1 = 2.793 | 1244.7 | – | –
305.55 K, m1 = 3.704 | 1308.4 | – | –
305.8 K, m1 = 0.9898 | 1093 | – | –
305.85 K, m1 = 0.3405 | 1029.6 | – | –
305.95 K, m1 = 1.525 | 1139.9 | – | –
